Data published in article PMC10331583, “Control of fibrosis with enhanced safety via asymmetric inhibition of prolyl‐tRNA synthetase 1” (EMBO Molecular Medicine, 2023).
Values joined by “and” are separate entries in the source; they are usually repeats but may differ in a detail not shown here. Identical values can stand only once.

Assays:
[1] = system: LX2 cells; assay: Determination of collagen level using 3D culture (hydroxyproline); assay type: cell-based; details: Homo sapiens, LX-2, read-out: IC50 for collagen level
Protocol: To screen HF derivatives, LX2 cells were resuspended with growth medium containing 20% Matrigel (BD Bioscience, 354234) and then seeded at 1 × 10^4 cells/well on a Lipidure‐coated U bottom 96‐well plate (NOF, LCU96). After 48 h, the cells were treated with TGF‐β1 (Sigma‐Aldrich, T7039) for 24 h to mimic fibrotic conditions and then additionally incubated in the presence of various concentrations of test compounds for 48 h. To determine the level of collagen, hydroxyproline levels were measured following the manufacturer's instructions (BioVision, K555‐100). Briefly, after the cells were incubated with HCl for 3 h at 120°C, the soluble supernatant was prepared using activated charcoal (Sigma‐Aldrich, 161551). The samples were dried for 3 h at 60°C and then, incubated with chloramine T mixture for 10 min and Ehrlich's reagent for 90 min at 60°C. The level of hydroxyproline was determined by measuring the absorbance at 540 nm.

[2] = system: C57BL/6 mice; assay: Bleomycin‐induced lung fibrosis, preventive model; assay type: in vivo; details: 3 weeks
Protocol: In a preventive model of bleomycin‐induced lung fibrosis, all experiments were conducted following the international guidelines on the ethical use of experimental animals and approved by the Institutional Animal Care and Use Committee of Aragen Bioscience (17‐0331‐M‐1). C57BL/6 mice (6–7‐week‐old, male, obtained from Simonsen Laboratories) were randomized into groups (n = 10 for each group) such that mean body weights were similar for the different groups. Oral administration of the compounds (vehicle, DWN12088, and pirfenidone) was started a day before oropharyngeal administration of 70 μl bleomycin (2 units/kg). DWN12088 (3, 10, 30 mg/kg) was treated once a day while 100 mg/kg pirfenidone was treated twice a day (200 mg/kg/day) for 3 weeks, and then the outcome was analyzed.

[3] = parameters: method as in earlier work; details: healthy adults; ref ANZCTR ACTRN12619001239156; ClinicalTrials.gov NCT04767815, NCT04888715, NCT04888728; cited from earlier work
[4] = Cytotoxicity assay in cells stably expressing EV; details: human; for activity at 72 h, 100 µM: 100000 nM; for activity at 72 h, 300 µM: 300000 nM
[5] = system: WI‐26 VA4 cells stably expressing EV (empty vector); assay: Cytotoxicity assay in cells stably expressing EV; details: WI-26 VA4 EV
[6] = Cytotoxicity, % of control (single replicates, Experiment #1-#4), WI-26 VA4 EV
[7] = Cytotoxicity, % of control, average, WI-26 VA4 EV

O[C@H]1CCCN[C@@H]1CCCn1cnc2c(Cl)c(Cl)ccc21 [DWN12088]
IC50 [1]: 0.0431 µM
fibrotic properties (modified Ashcroft score, lung weight, collagen content in BALF) ([2]; 10 mg/kg once a day): alleviated fibrotic properties
fibrotic properties (modified Ashcroft score, lung weight, collagen content in BALF) ([2]; 30 mg/kg once a day): alleviated fibrotic properties
safety in phase 1 studies [3]: validated its safety in phase 1 studies
CC50 at 72 h [4]: 24 µM
IC50 at 72 h [4]: 24 µM
activity at 72 h, 100 µM [4, 6]: 29.1%
activity at 72 h, 300 µM [4, 6]: 2.25%
activity at 72 h, 0.01 µM ([4]; Cytotoxicity, % of control, average, WI-26 VA4 EV, 10 nM): 131%
activity at 72 h, 0.03 µM ([4]; Cytotoxicity, % of control, average, WI-26 VA4 EV, 30 nM): 120%
activity at 72 h, 0.1 µM ([4]; Cytotoxicity, % of control, average, WI-26 VA4 EV, 100 nM): 127%
activity at 72 h, 0.3 µM ([4]; Cytotoxicity, % of control, average, WI-26 VA4 EV, 300 nM): 125%
activity at 72 h, 1 µM ([4]; Cytotoxicity, % of control, average, WI-26 VA4 EV, 1000 nM): 118%
activity at 72 h, 3 µM ([4]; Cytotoxicity, % of control, average, WI-26 VA4 EV, 3000 nM): 105%
activity at 72 h, 10 µM ([4]; Cytotoxicity, % of control, average, WI-26 VA4 EV, 10000 nM): 108%
activity at 72 h, 30 µM ([4]; Cytotoxicity, % of control, average, WI-26 VA4 EV, 30000 nM): 42.2%
activity at 72 h, 100 µM [4, 7]: 25.1%
activity at 72 h, 300 µM [4, 7]: 1.78%
activity at 72 h, 1000 µM ([4]; Cytotoxicity, % of control, average, WI-26 VA4 EV, 1000000 nM): -0.23%
Cytotoxicity, % of control (single replicates, Experiment #1-#4) ([5]; 10 nM, 0.01 µM): 181.59 % of control and 174.53 % of control and 155.63 % of control and 131.53 % of control and 90.90 % of control and 98.37 % of control and 100.27 % of control and 114.43 % of control
Cytotoxicity, % of control (single replicates, Experiment #1-#4) ([5]; 30 nM, 0.03 µM): 144.67 % of control and 129.26 % of control and 139.92 % of control and 145.06 % of control and 96.12 % of control and 96.09 % of control and 105.17 % of control and 102.77 % of control
Cytotoxicity, % of control (single replicates, Experiment #1-#4) ([5]; 100 nM, 0.1 µM): 147.51 % of control and 118.70 % of control and 139.92 % of control and 137.75 % of control and 115.49 % of control and 112.19 % of control and 121.53 % of control and 122.89 % of control
Cytotoxicity, % of control (single replicates, Experiment #1-#4) ([5]; 300 nM, 0.3 µM): 145.14 % of control and 129.72 % of control and 157.05 % of control and 115.90 % of control and 103.62 % of control and 109.27 % of control and 123.14 % of control and 114.81 % of control
Cytotoxicity, % of control (single replicates, Experiment #1-#4) ([5]; 1000 nM, 1 µM): 147.27 % of control and 102.27 % of control and 132.28 % of control and 145.77 % of control and 98.60 % of control and 107.79 % of control and 107.19 % of control and 105.61 % of control
Cytotoxicity, % of control (single replicates, Experiment #1-#4) ([5]; 3000 nM, 3 µM): 108.37 % of control and 94.06 % of control and 109.81 % of control and 125.38 % of control and 98.33 % of control and 90.23 % of control and 106.43 % of control and 103.83 % of control
Cytotoxicity, % of control (single replicates, Experiment #1-#4) ([5]; 10000 nM, 10 µM): 112.55 % of control and 107.77 % of control and 118.32 % of control and 138.37 % of control and 93.86 % of control and 92.69 % of control and 99.78 % of control and 101.69 % of control
Cytotoxicity, % of control (single replicates, Experiment #1-#4) ([5]; 30000 nM, 30 µM): 48.06 % of control and 41.00 % of control and 64.15 % of control and 50.51 % of control and 27.36 % of control and 27.48 % of control and 37.20 % of control and 42.21 % of control
Cytotoxicity, % of control (single replicates, Experiment #1-#4) ([5]; 100000 nM, 100 µM): 28.49 % of control and 29.03 % of control and 30.62 % of control and 22.10 % of control and 18.35 % of control and 21.38 % of control and 22.01 % of control
Cytotoxicity, % of control (single replicates, Experiment #1-#4) ([5]; 300000 nM, 300 µM): 1.70 % of control and 1.82 % of control and 1.26 % of control and 1.75 % of control and 1.60 % of control and 1.89 % of control and 2.00 % of control
Cytotoxicity, % of control (single replicates, Experiment #1-#4) ([5]; 1000000 nM, 1000 µM): 0.17 % of control and -0.17 % of control and 0.30 % of control and -0.30 % of control (2×) and -0.44 % of control (2×) and -0.63 % of control
